Counter-ions that a name gives are not always drawn. Like-named read-outs stand apart in the source and are kept apart here.
Columns and labels:
[1] = test system: ovarian cancer patients with confirmed BRCA-1 mutations; conditions: preliminary phase I data; cited from earlier work
PARP-1 FL = PARP-1 FL (Homo sapiens, UniProt P09874); experiment: Fluorescence polarization probe displacement assay; assay type: binding; conditions: for DC50: half maximal displacement concentration
Description: (§1) Affinity of the tested compounds and their selectivity with respect to the different PARP isoforms of interest was quantified in a displacement assay.
(§2) In all of the experiments, the polarization signal was measured using a Saphire2 plate reader (Tecan). Data analysis was performed using Dynafit software. In particular, titration data were fitted to the following equilibria: Enzyme+probe <==> Complex Enzyme-probe, while displacement data were fitted to the following equilibria: Enzyme+probe <==> Complex Enzyme-probe, Enzyme+Compound <==> Complex Enzyme-Compound, whereby binding of probe and compound on the enzyme are mutually exclusive (pure competitive mechanism). Displacement data were also fitted using Excel spreadsheet (Microsoft Inc. Seattle, USA) to a four parameter logistic model (4PL), or Hill-Slope model to calculate DC50s where the DC50 value represents the compound concentration at which the polarization signal is diminished by 50% compared to untreated controls.
(§3) In agreement, affinity binding constants (KD) were determined by fitting with a pure competitive mechanism. KD values are the average of three independent experiments.

PARP-3 FL = biological target: T1, PARP-3 FL (Homo sapiens, UniProt Q9Y6F1); experiment: Fluorescence polarization probe displacement assay; assay type: binding; conditions: compound P1 as the probe
T1 sequence (Q9Y6F1 1-533): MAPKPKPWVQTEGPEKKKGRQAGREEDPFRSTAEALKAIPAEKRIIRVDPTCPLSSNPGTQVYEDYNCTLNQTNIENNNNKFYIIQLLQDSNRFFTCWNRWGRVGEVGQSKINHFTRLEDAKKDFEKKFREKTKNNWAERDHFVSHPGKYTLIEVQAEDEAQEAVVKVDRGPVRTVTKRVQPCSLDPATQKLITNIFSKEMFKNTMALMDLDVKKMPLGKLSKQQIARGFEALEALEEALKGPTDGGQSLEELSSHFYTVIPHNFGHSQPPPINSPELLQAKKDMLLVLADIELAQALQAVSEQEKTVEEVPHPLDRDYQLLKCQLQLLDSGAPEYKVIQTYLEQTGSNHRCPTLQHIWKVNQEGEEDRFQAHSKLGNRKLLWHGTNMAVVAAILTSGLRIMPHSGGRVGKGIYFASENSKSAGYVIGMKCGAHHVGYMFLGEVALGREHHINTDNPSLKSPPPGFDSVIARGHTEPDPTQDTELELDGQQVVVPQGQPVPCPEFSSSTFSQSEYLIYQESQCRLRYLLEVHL
Description: as §1, §2, §3

[2] = test system: hydrogen peroxide induced PAR formation in HeLa cells; experiment: Cellular PAR assay (inhibition of hydrogen peroxide induced PAR formation); assay type: cell-based; conditions: Homo sapiens, 0.1 mM hydrogen peroxide 15 min
Description: Compounds potencies were evaluated by measuring the inhibition of poly (ADP-ribose) (PAR) chains formation as a marker for PARP-1 inhibition.
Cellular activity of PARP-1 inhibitors was assessed by measuring the inhibition of the hydrogen peroxide induced PAR formation in HeLa cells (ECACC). Cellular PAR levels were measured by immunocytochemistry and quantified using an ArrayScan vTi instrument (Cellomics Thermo Scientific).
Studies were performed as follows: 6000 cells/well were seeded in 96 well plates (Perkin Elmer) in MEM/10% FCS and incubated for 24 hours at 37° C., 5% carbon dioxide. Test compounds were then added at the required concentration for 30′. […] Concentration curves were prepared in MEM/10% FCS from compound stocks in DMSO and final DMSO concentration was 0.002% (v/v). Duplicate wells for each concentration point were prepared with a typical highest compound concentration of 20 μM and serial dilution 1:3. […] Non-specific binding sites were blocked by incubating wells for 30 min in PBS containing 5% (w/v) FBS 0.05% tween20. […] After washing further 3 times in PBS, cellular PAR immunoreactivity was assessed using the ArrayScan vTi instrument, with a Zeiss 10×0.5 N.A. objective, and applying the Cytotoxicity.V3 algorithm (Cellomics/Thermo Fisher) with a XF100 filter. At least 10 fields, corresponding to at least 900 cells, were read for each well.
The following formula is used: IC50=Bottom+(Top−Bottom)/(1+10^((Log EC50−X))); X is the logarithm of concentration. IC50 is the response; IC50 starts at Bottom and goes to Top with a sigmoid shape.

[3] = Pharmacokinetics and oral bioavailability in the mouse; assay type: in vivo; conditions: for F on AUC: 10 mg/kg, ratio of oral to IV dose-normalized plasma AUC; for clearance / Vd / AUC / half-life: male, Balb Nu/Nu, plasma, mean value; for clearance / Vd: 10 mg/kg intravenous bolus; for clearance: read-out: CL(IV bolus); for Vd: read-out: Vdss (IV bolus); for AUC / half-life: 10 mg/kg oral; for half-life: read-out: T½ (oral) (converted)
Description: The compounds were formulated in 10% tween 80/dextrose for intravenous bolus administration while oral administrations were performed using the compounds formulated in 0.5% methylcellulose. A single administration at the dose of 10 mg/kg was given and three male animals for each route were used. […] Plasma samples were prepared by plasma proteins precipitation adding 200 µl of methanol to 10 µl of plasma in a 96 well plate. […] The supernatant was considered as final extract and injected onto the LC-MS-MS system (HPLC system: Hewlett Packard 1100 series using Atlantis HILIC Silica 50*2.1 mm 5.0 μM analytical column; MS instrument: Perkin Elmer SCIEX API 2000 and ionization performed with Turbo Ion Spray in positive ion mode). Lower limit of quantification is 5.0 ng/ml, upper limit of quantification is 10000 ng/ml. […] Non-compartmental method (linear trapezoidal rule and linear regression analysis of natural log-transformed plasma concentrations vs. time data) was used. After intravenous dosing, C0 was set equal to C0.083, Absolute bioavailability (F) was calculated from the ratio of average oral to IV (intravenous) dose-normalized plasma AUC (area under curve) values.

[4] = test system: Capan-1 human pancreatic cancer tumors; experiment: In vivo efficacy as single agent, Capan-1 BRCA-2 mutated mouse model; conditions: oral; for Toxicity: body weight reduction and survival
Description: Each group included seven animals. The treatment started one day after randomization.

PARP-2 FL = PARP-2 FL (Homo sapiens, UniProt Q9UGN5); experiment: Fluorescence polarization probe displacement assay; assay type: binding; conditions: for DC50: compound P1 as the probe
Description: as §1, §2, §3

[5] = test system: Capan-1 human pancreatic cancer tumors; conditions: for T − C: delay to reach 1 g
Description: Balb, athymic Nu/Nu male mice, from Harlan (Italy), were maintained in agreement with the European Communities Council Directive no. 86/609/EEC concerning the protection of animals used for experimental or other scientific purposes, in cages with paper filter cover, food and bedding sterilized and acidified water. Fragments of Capan-1 human pancreatic cancer tumors were implanted subcutaneously. Mice bearing a palpable tumor (100-200 mm^3) were selected and randomized into control and treated groups. Each group included seven animals. The treatment started one day after randomization. Compound of formula (I) was administered by oral route as a methocel suspension at the doses of 100 mg/kg daily or twice a day for the indicated times.
Compound (39) was administered by oral route at the dose of 100 mg/kg twice a day for ten consecutive days (days 1 to 10). […] Tumor growth and body weight were measured every 3 days. Tumor growth was assessed by caliper. The two diameters were recorded and the tumor weight was calculated according to the following formula: length (mm)×width^2/2. […] This delay (T−C value) was defined as the difference of time (in days) required for the treatment group (T) and the control group (C) tumors to reach a predetermined size (1 g). Toxicity was evaluated on the basis of body weight reduction and animal survival rate.

[6] = 150 mg/kg, days 1-14 twice a day
[7] = 100 mg/kg, days 1-20 once a day
[8] = 100 mg/kg, days 1-10 twice a day
[9] = Compound (39) alone, oral 100 mg/kg twice a day, days 1 to 10
[10] = temozolomide alone, oral 50 mg/kg once a day, days 3, 4, 5, 6 and 7

Chain of PARP-1 FL (P09874 whole entry): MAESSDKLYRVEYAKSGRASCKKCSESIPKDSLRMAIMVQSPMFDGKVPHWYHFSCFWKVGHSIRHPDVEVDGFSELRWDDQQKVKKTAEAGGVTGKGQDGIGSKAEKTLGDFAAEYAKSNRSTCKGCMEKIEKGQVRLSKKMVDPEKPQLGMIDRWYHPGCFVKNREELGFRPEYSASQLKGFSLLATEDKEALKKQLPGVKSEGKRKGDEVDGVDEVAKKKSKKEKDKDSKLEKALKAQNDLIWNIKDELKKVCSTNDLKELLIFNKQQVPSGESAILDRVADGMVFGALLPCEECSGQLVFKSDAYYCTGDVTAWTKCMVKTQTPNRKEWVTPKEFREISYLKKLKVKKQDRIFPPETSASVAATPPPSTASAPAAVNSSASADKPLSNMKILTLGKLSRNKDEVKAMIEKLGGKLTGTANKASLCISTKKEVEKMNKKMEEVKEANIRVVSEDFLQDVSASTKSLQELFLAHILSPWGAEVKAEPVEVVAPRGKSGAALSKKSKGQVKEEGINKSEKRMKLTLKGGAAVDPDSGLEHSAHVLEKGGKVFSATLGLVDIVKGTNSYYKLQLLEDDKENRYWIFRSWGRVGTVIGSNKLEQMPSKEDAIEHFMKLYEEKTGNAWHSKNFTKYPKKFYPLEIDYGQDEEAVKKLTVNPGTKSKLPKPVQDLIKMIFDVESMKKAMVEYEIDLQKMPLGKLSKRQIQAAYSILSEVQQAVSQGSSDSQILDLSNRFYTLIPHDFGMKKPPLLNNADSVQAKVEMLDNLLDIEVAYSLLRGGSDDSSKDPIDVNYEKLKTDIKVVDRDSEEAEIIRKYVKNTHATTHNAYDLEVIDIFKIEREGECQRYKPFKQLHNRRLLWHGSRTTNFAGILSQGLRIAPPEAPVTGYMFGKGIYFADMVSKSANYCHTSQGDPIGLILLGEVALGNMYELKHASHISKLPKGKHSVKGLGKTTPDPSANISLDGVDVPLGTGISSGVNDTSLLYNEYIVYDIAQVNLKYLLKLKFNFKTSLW
Chain of PARP-2 FL (Q9UGN5 whole entry): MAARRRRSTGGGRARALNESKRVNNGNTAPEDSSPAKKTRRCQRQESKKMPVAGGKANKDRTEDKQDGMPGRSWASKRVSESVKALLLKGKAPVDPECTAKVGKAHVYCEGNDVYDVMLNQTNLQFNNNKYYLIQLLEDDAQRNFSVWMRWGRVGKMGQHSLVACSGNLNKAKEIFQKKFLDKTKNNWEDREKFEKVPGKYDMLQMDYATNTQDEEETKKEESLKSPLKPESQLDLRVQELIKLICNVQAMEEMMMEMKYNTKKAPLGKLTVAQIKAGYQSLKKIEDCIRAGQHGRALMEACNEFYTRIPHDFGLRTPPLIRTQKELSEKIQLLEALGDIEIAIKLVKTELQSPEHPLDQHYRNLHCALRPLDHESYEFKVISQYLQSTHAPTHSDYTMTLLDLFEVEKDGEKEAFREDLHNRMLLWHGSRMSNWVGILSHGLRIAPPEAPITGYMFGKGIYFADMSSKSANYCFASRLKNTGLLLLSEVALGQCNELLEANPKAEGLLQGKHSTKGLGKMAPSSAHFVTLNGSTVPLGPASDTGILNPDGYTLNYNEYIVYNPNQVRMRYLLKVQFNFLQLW

Row | Structure (SMILES) | Kd (PARP-1 FL) [µM] | DC50 (PARP-1 FL) [µM] | DC50 (PARP-3 FL) [µM] | IC50 [2] [µM] | Kd (PARP-2 FL) [µM] | DC50 (PARP-2 FL) [µM] | F on AUC [3] [%] | clearance [3] [mL/min/kg] | Vd [3] [L/kg] | AUC [3] [µM·h] | half-life [3] [h] | further results
1 | O=C(c1cc(Cc2n[nH]c(=O)c3ccccc23)ccc1F)N1CCN(C(=O)C2CC2)CC1 [AZD2281] | – | – | – | – | – | – | – | – | – | – | – | Partial responses [1]: 4 out of 10
2 | COc1cccc(-c2[nH]c(=O)c3ccccc3c2OCCN)c1.Cl [Compound 11, 4-(2-Amino-ethoxy)-3-(3-methoxy-phenyl)-2H-isoquinolin-1-one hydrochloride] | < 0.03 | < 0.25 | 0.35 | 0.18 | – | – | 64 | 120 | 2.6 | 2.94 | 1.01 | Max TGI (%) [4, 6]: 31%; Toxicity [4, 6]: 0/7
3 | COc1ccc(-c2[nH]c(=O)c3ccccc3c2OCCN)cc1.Cl [Compound 24, 4-(2-Amino-ethoxy)-3-(4-methoxy-phenyl)-2H-isoquinolin-1-one hydrochloride] | < 0.03 | 0.32 | 0.37 | 0.06 | – | – | 50 | 41.1 | 3 | 6.97 | 2.71 | –
4 | COc1ccc(-c2[nH]c(=O)c3cc(F)ccc3c2OCCN)cc1.Cl [Compound 25, 4-(2-Amino-ethoxy)-7-fluoro-3-(4-methoxy-phenyl)-2H-isoquinolin-1-one hydrochloride] | < 0.01 | < 0.25 | 0.21 | 0.06 | 0.61 | 2.29 | 71 | 42.2 | 2.3 | 8.32 | 2.17 | Max TGI (%) [4, 7]: 18%; Toxicity [4, 7]: 0/7
5 | O=c1[nH]c(-c2cccc(O)c2)c(OCCCN2CCCCC2)c2ccccc12 [Compound 33, 3-(3-Hydroxy-phenyl)-4-(3-piperidin-1-yl-propoxy)-2H-isoquinolin-1-one] | < 0.03 | < 0.25 | 0.34 | 0.41 | 0.25 | 0.58 | 24 | 176 | 2.9 | 0.64 | 1.11 | –
6 | Cl.NCCOc1c(-c2ccccc2)[nH]c(=O)c2cc(F)ccc12 [Compound 39, 4-(2-Amino-ethoxy)-7-fluoro-3-phenyl-2H-isoquinolin-1-one hydrochloride] | < 0.01 | < 0.25 | 0.28 | 0.06 | 4.38 | 3.32 | 72 | 37.9 | 1.7 | 11 | 1.06 | Max TGI (%) [4, 8]: 48%; Toxicity [4, 8]: 0/7; Toxicity [5, 9]: 0/7; T − C [5, 9]: 3 days; Interaction of the combination (T−C versus addition of single treatments) ([5]; compound (39) combined with temozolomide): strong synergism
7 | COc1cccc(-c2[nH]c(=O)c3cc(F)ccc3c2OCCCN2CCCCC2)c1 [Compound 43, 7-Fluoro-3-(3-methoxy-phenyl)-4-(3-piperidin-1-yl-propoxy)-2H-isoquinolin-1-one hydrochloride] | 0.04 | < 0.25 | 2.52 | 0.09 | 2.02 | 4.21 | – | – | – | – | – | –
8 | O=c1[nH]c(-c2cccc(Cl)c2)c(OCCCN2CCCCC2)c2ccccc12 [Compound 44, 3-(3-Chloro-phenyl)-4-(3-piperidin-1-yl-propoxy)-2H-isoquinolin-1-one] | < 0.03 | < 0.25 | 1.23 | 0.13 | 0.4 | 0.7 | – | – | – | – | – | –
9 | O=c1[nH]c(-c2cccc(O)c2)c(OCCCN2CCCCC2)c2ccc(F)cc12 [Compound 45, 7-Fluoro-3-(3-hydroxy-phenyl)-4-(3-piperidin-1-yl-propoxy)-2H-isoquinolin-1-one hydrochloride] | < 0.03 | < 0.25 | 0.25 | 0.28 | 0.12 | 0.42 | – | – | – | – | – | –
10 | Cn1nnc2c(C(N)=O)ncn2c1=O [temozolomide, reference compound] | – | – | – | – | – | – | – | – | – | – | – | Toxicity [5, 10]: 0/7; T − C [5, 10]: 3 days

Further lines, with some results ahead:

Row | Kd (PARP-1 FL) [µM] | DC50 (PARP-1 FL) [µM] | DC50 (PARP-3 FL) [µM] | IC50 [2] [µM] | Kd (PARP-2 FL) [µM] | DC50 (PARP-2 FL) [µM] | Structure (SMILES) | F on AUC [3] [%] | clearance [3] [mL/min/kg] | Vd [3] [L/kg] | AUC [3] [µM·h] | half-life [3] [h] | further results
11 | < 0.01 | < 0.25 | 0.37 | 0.06 | 3.61 | 5.99 | COc1cccc(-c2[nH]c(=O)c3cc(F)ccc3c2OCCN)c1 [Compound 46, 4-(2-Amino-ethoxy)-7-fluoro-3-(3-methoxy-phenyl)-2H-isoquinolin-1-one hydrochloride] | – | – | – | – | – | –
12 | < 0.03 | < 0.25 | 0.22 | 0.1 | – | 0.51 | NCCOc1c(-c2cccc(O)c2)[nH]c(=O)c2cc(F)ccc12 [Compound 47, 4-(2-Amino-ethoxy)-7-fluoro-3-(3-hydroxy-phenyl)-2H-isoquinolin-1-one] | – | – | – | – | – | –
13 | < 0.01 | < 0.25 | 0.33 | 0.11 | 0.51 | 1.16 | Cl.NCCOc1c(-c2cccc(Cl)c2)[nH]c(=O)c2ccccc12 [Compound 48, 4-(2-Amino-ethoxy)-3-(3-chloro-phenyl)-2H-isoquinolin-1-one hydrochloride] | 27 | 59.9 | 4.1 | 2.39 | 1.11 | –
14 | < 0.01 | < 0.25 | 0.2 | 0.09 | – | 0.97 | Cc1cccc2c(=O)[nH]c(-c3ccccc3)c(OCCN)c12 [Compound 49, 4-(2-Amino-ethoxy)-5-methyl-3-phenyl-2H-isoquinolin-1-one hydrochloride] | – | – | – | – | – | –
15 | < 0.03 | < 0.25 | 0.33 | 0.08 | – | 3.3 | NCCOc1c(-c2cccc(Cl)c2)[nH]c(=O)c2cc(F)ccc12 [Compound 50, 4-(2-Amino-ethoxy)-3-(3-chloro-phenyl)-7-fluoro-2H-isoquinolin-1-one hydrochloride] | – | – | – | – | – | –
16 | – | < 0.25 | 1.11 | 0.57 | – | 3.86 | CN(C)CCOc1c(-c2ccccc2)[nH]c(=O)c2cc(F)ccc12 [Compound 84, 4-[2-(dimethylamino)ethoxy]-7-fluoro-3-phenylisoquinolin-1(2H)-one] | – | – | – | – | – | –
17 | – | < 0.25 | 0.33 | 0.54 | – | 4.72 | NCCCOc1c(-c2ccccc2)[nH]c(=O)c2cc(F)ccc12 [Compound 86, 4-(3-aminopropoxy)-7-fluoro-3-phenylisoquinolin-1(2H)-one hydrochloride] | – | – | – | – | – | –
18 | – | < 0.25 | 1.11 | 0.4 | – | > 10 | O=c1[nH]c(-c2ccccc2)c(OCCCNCc2ccccc2)c2ccc(F)cc12 [Compound 87, 4-[3-(benzylamino)propoxy]-7-fluoro-3-phenylisoquinolin-1(2H)-one] | – | – | – | – | – | –
19 | – | 1.59 | > 10 | 3.44 | – | 5.85 | CCN(CC)CCOc1c(-c2ccccc2)[nH]c(=O)c2cc(F)ccc12 [Compound 88, 4-[2-(diethylamino)ethoxy]-7-fluoro-3-phenylisoquinolin-1(2H)-one trifluoroacetate] | – | – | – | – | – | –
20 | – | 0.4 | 6.45 | 7.55 | – | > 10 | CN1CCN(CCOc2c(-c3ccccc3)[nH]c(=O)c3cc(F)ccc23)CC1 [Compound 89, 7-fluoro-4-[2-(4-methylpiperazin-1-yl)ethoxy]-3-phenylisoquinolin-1(2H)-one trifluoroacetate] | – | – | – | – | – | –

From US8993594B2, “Isoquinolin-1(2H)-one derivatives as PARP-1 inhibitors” (Nerviano Medical Sciences S.R.L., priority 2009, dated 2015)
